## N=C(N)NC(=O)CCCn1nc2ccc(C(=O)NCC(NC(=O)OCc3ccccc3)C(=O)O)cn2c1=O (stereo not shown) [Example 6, 3-[2-(3-Guanidinocarbonyl-1-propyl)-2,3-dihydro-3-oxo-[1,2,4]triazolo[4,3-a]pyridin-6-carbonylamino]-2-[(phenylmethoxy)carbonylamino]propanoic acid]
  melting point: 190 °C (dec.)
